Laboratory results published in US8513268B2, “1H-quinazoline-2,4-diones processes for their production, pharmaceutical compositions, and treatment for epilepsy” (Novartis AG, priority 2005, dated 2013).
Structures can show the parent of a compound that is named as a salt.

Legend:
AMPA-Receptor = assay: [3H] CNQX binding test (AMPA-receptor binding); settings: brain membranes, 5 nM [3H]-CNQX, 4° C., 40 min
Procedure: CNQX binding test (Honoré et al. Biochem. Pharmacol. 1989, 38: 3207-3212). This test is performed as follows: • Brain membranes: The animals are decapitated, the brain removed and homogenized in 10 volumes of ice-cold 10% sucrose with a glass/Teflon homogenizer at positions 5 for 30 sec. The membranes are centrifuged at 1000×g for 10 min, and the supernatant centrifuged at 20,000×g for 15 min. The resulting pellet is resuspended in 10 volumes of cold water with a tissue homogenizer (Brinkman Polytron) at position 5 for 15 sec and the suspension centrifuged at 8000×g for 10 min. The supernatant including the buffy layer is centrifuged at 40,000×g for 20 min, the pellet resuspended in 5 volumes of water and the suspension frozen (20-30 min in dry ice/MeOH) and thawed (water-bath at 37° C.) twice. The suspension is centrifuged at 40,000×g for 20 min, the pellet resuspended in 50 mM HEPES/KOH, pH 7.5, and centrifuged at 40,000×g for 10 min. […]
Two hundred μL of the scintillation fluid Microscint 20 (Packard) are added and the radioactivity is counted in a Packard Topcount scintillation counter at an efficiency of 40-45%. […]

rGluR3 AMPA receptor = molecular target: T1, rGluR3 AMPA receptor (Rattus norvegicus, UniProt P19492); assay: Functional test for AMPA-receptor activity, two electrode voltage clamp in Xenopus laevis oocytes; assay type: cell-based; settings: oocytes expressing rat GluR3-(flop) AMPA receptor; read-out: IC50-value (antagonist)
T1 construct: expressed in transfected cells; host or cells: Xenopus laevis oocytes injected with cRNA
T1 sequence (P19492 23-888): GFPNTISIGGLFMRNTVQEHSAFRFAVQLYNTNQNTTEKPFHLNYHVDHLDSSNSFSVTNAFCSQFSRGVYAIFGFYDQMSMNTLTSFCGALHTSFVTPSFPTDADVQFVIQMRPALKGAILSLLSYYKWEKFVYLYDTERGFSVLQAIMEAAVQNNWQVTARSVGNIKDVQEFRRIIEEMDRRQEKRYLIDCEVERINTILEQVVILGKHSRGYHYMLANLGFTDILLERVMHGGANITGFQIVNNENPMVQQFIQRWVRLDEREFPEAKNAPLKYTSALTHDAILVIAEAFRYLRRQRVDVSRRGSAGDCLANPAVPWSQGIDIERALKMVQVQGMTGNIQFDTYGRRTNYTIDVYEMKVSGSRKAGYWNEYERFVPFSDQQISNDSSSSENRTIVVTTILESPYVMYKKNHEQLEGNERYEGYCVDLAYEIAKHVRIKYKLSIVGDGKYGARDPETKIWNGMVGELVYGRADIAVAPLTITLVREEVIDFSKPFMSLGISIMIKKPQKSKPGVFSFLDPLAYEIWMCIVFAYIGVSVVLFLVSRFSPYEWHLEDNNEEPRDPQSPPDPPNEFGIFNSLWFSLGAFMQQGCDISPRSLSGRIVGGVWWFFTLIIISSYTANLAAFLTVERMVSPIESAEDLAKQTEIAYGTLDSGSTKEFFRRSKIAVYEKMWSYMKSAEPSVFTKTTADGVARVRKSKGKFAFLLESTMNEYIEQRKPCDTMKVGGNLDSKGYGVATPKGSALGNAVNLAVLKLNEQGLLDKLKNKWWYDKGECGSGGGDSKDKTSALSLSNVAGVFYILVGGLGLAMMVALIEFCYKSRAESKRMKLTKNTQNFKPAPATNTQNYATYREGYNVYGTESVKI
Procedure: For the determination of functional agonism or antagonism at the AMPA-receptor, experiments can be performed on Xenopus oocytes as previously described in detail (Urwyler et al., Mol. Pharmacol. 2001, 60, 963-971). Briefly, two electrode voltage clamp recordings are performed from Xenopus laevis oocytes expressing GluR3 AMPA receptors. Plasmids for the rat GluR3-(flop) (Hollmann et al., Science 1991, 252, 851-853) are linearized and transcribed into capped cRNA using an in vitro RNA synthesis kit (Ambion, Texas) with T7 Polymerase. Stock solutions are kept in 70% EtOH. Before use, cRNA is precipitated and resuspended in DEPC-treated water. Oocytes are injected with RNA coding the rat GluR3-(flop) AMPA receptor. For recordings, oocytes are placed in a perfusion chamber with continuous gravity flow of frog Ringer's solution. For recordings from oocytes expressing rGluR3-(flop) receptors frog, Ringer's solution containing Mg^2+ (81 mM NaCl; 2.5 mM KCl; 1 mM CaCl2; 1 mM MgCl2, 2.5 mM NaHCO3, 5 mM HEPES, pH 7.4) is used.
Test compounds are washed in with gravity.

Compound	melting point	IC50 (AMPA-Receptor)	IC50 (rGluR3 AMPA receptor)
CS(=O)(=O)Nn1c(=O)[nH]c2cc(C(F)(F)F)c(-c3cccc(CN)c3)cc2c1=O (as salt: hydrochloride) [Example 38, N-[6-(3-Aminomethyl-phenyl)-2,4-dioxo-7-trifluoromethyl-1,4-dihydro-2H-quinazolin-3-yl]methanesulfonamide]	282 to 284 °C		
CC(O)c1cc2c(=O)n(NS(C)(=O)=O)c(=O)[nH]c2cc1C(F)(F)F (racemic) [Example 2, N-[6-(1-Hydroxy-ethyl)-2,4-dioxo-7-trifluoromethyl-1,4-dihydro-2H-quinazolin-3-yl]-methanesulfonamide]	263 to 268 °C		
CC(=O)c1cc2c(=O)n(NS(C)(=O)=O)c(=O)[nH]c2cc1C(F)(F)F [Example 1, N-(6-Acetyl-2,4-dioxo-7-trifluoromethyl-1,4-dihydro-2H-quinazolin-3-yl)-methanesulfonamide]	258 to 265 °C		
CCC(O)c1cc2c(=O)n(NS(C)(=O)=O)c(=O)[nH]c2cc1C(F)(F)F (stereo not drawn) [Example 7, N-[6-(1-Hydroxy-propyl)-2,4-dioxo-7-trifluoromethyl-1,4-dihydro-2H-quinazolin-3-yl]-methanesulfonamide]	219 to 222 °C		
CCCC(=O)c1cc2c(=O)n(NS(C)(=O)=O)c(=O)[nH]c2cc1C(F)(F)F [Example 10, N-(6-Butyryl-2,4-dioxo-7-trifluoromethyl-1,4-dihydro-2H-quinazolin-3-yl)-methanesulfonamide]	236 to 239 °C		
CS(=O)(=O)Nn1c(=O)[nH]c2cc(C(F)(F)F)c(C3CCCO3)cc2c1=O (stereo not drawn) [Example 12, N-[2,4-Dioxo-6-(tetrahydro-furan-2-yl)-7-trifluoromethyl-1,4-dihydro-2H-quinazolin-3-yl]-methanesulfonamide]	254 to 257 °C		
CCCOC(C)c1cc2c(=O)n(NS(C)(=O)=O)c(=O)[nH]c2cc1C(F)(F)F (stereo not drawn) [Example 14, N-[2,4-Dioxo-6-(1-propoxy-ethyl)-7-trifluoromethyl-1,4-dihydro-2H-quinazolin-3-yl]-methanesulfonamide]	95 to 105 °C		
CCCCOC(C)c1cc2c(=O)n(NS(C)(=O)=O)c(=O)[nH]c2cc1C(F)(F)F (stereo not drawn) [Example 15, N-[6-(1-Butoxy-ethyl)-2,4-dioxo-7-trifluoromethyl-1,4-dihydro-2H-quinazolin-3-yl]-methanesulfonamide]	84 to 90 °C		
CC(OC1CCCC1)c1cc2c(=O)n(NS(C)(=O)=O)c(=O)[nH]c2cc1C(F)(F)F (stereo not drawn) [Example 17, N-[6-(1-Cyclopentyloxy-ethyl)-2,4-dioxo-7-trifluoromethyl-1,4-dihydro-2H-quinazolin-3-yl]-methanesulfonamide]	188 to 192 °C		
CC(C)C(=O)c1cc2c(=O)n(NS(C)(=O)=O)c(=O)[nH]c2cc1C(F)(F)F [Example 21, N-(6-Isobutyryl-2,4-dioxo-7-trifluoromethyl-1,4-dihydro-2H-quinazolin-3-yl)-methanesulfonamide]	228 to 231 °C		
CS(=O)(=O)Nn1c(=O)[nH]c2cc(C(F)(F)F)c(C3CCCCO3)cc2c1=O (stereo not drawn) [Example 24, N-[2,4-Dioxo-6-(tetrahydro-pyran-2-yl)-7-trifluoromethyl-1,4-dihydro-2H-quinazolin-3-yl]-methanesulfonamide]	275 to 280 °C		
CS(=O)(=O)Nn1c(=O)[nH]c2cc(C(F)(F)F)c(CCCO)cc2c1=O [Example 25, N-[6-(3-Hydroxy-propyl)-2,4-dioxo-7-trifluoromethyl-1,4-dihydro-2H-quinazolin-3-yl]-methanesulfonamide]	243 to 247 °C		
CS(=O)(=O)Nn1c(=O)[nH]c2cc(C(F)(F)F)c(-c3cccc(C#N)c3)cc2c1=O [Example 34, N-[6-(3-Cyano-phenyl)-2,4-dioxo-7-trifluoromethyl-1,4-dihydro-2H-quinazolin-3-yl]-methanesulfonamide]	291 to 292 °C		
CC(=O)c1cccc(-c2cc3c(=O)n(NS(C)(=O)=O)c(=O)[nH]c3cc2C(F)(F)F)c1 [Example 36, N-[6-(3-Acetyl-phenyl)-2,4-dioxo-7-trifluoromethyl-1,4-dihydro-2H-quinazolin-3-yl]-methanesulfonamide]	220 to 222 °C		
CC(O)c1cccc(-c2cc3c(=O)n(NS(C)(=O)=O)c(=O)[nH]c3cc2C(F)(F)F)c1 (stereo not drawn) [Example 37, N-{6-[3-(1-Hydroxy-ethyl)-phenyl]-2,4-dioxo-7-trifluoromethyl-1,4-dihydro-2H-quinazolin-3-yl}-methanesulfonamide]	165 to 169 °C		
CN(C)Cc1cccc(-c2cc3c(=O)n(NS(C)(=O)=O)c(=O)[nH]c3cc2C(F)(F)F)c1 [Example 39, N-[6-(3-Dimethylaminomethyl-phenyl)-2,4-dioxo-7-trifluoromethyl-1,4-dihydro-2H-quinazolin-3-yl]-methanesulfonamide]	346 to 348 °C		

Further lines, results first:

melting point	IC50 (AMPA-Receptor)	IC50 (rGluR3 AMPA receptor)	Compound
233 to 236 °C			COC(C)c1cc2c(=O)n(NS(C)(=O)=O)c(=O)[nH]c2cc1C(F)(F)F (stereo not drawn) [Example 3, N-[6-(1-Methoxy-ethyl)-2,4-dioxo-7-trifluoromethyl-1,4-dihydro-2H-quinazolin-3-yl]-methanesulfonamide]
105 to 112 °C	< 1 µM	< 3 µM	CCOC(C)c1cc2c(=O)n(NS(C)(=O)=O)c(=O)[nH]c2cc1C(F)(F)F (stereo not drawn) [Example 4, N-[6-(1-Ethoxy-ethyl)-2,4-dioxo-7-trifluoromethyl-1,4-dihydro-2H-quinazolin-3-yl]-methanesulfonamide]
110 to 115 °C			CC(C)OC(C)c1cc2c(=O)n(NS(C)(=O)=O)c(=O)[nH]c2cc1C(F)(F)F (stereo not drawn) [Example 5, N-[6-(1-Isopropoxy-ethyl)-2,4-dioxo-7-trifluoromethyl-1,4-dihydro-2H-quinazolin-3-yl]-methanesulfonamide]
234 to 236 °C			CCC(=O)c1cc2c(=O)n(NS(C)(=O)=O)c(=O)[nH]c2cc1C(F)(F)F [Example 6, N-(2,4-Dioxo-6-propionyl-7-trifluoromethyl-1,4-dihydro-2H-quinazolin-3-yl)-methanesulfonamide]
223 to 226 °C			CCCC(O)c1cc2c(=O)n(NS(C)(=O)=O)c(=O)[nH]c2cc1C(F)(F)F (stereo not drawn) [Example 11, N-[6-(1-Hydroxy-butyl)-2,4-dioxo-7-trifluoromethyl-1,4-dihydro-2H-quinazolin-3-yl]-methanesulfonamide]
262 to 265 °C			CS(=O)(=O)Nn1c(=O)[nH]c2cc(C(F)(F)F)c(C(=O)C(F)(F)F)cc2c1=O [Example 20, N-[2,4-Dioxo-6-(2,2,2,-trifluoro-acetyl)-7-trifluoromethyl-1,4-dihydro-2H-quinazolin-3-yl]-methanesulfonamide]
232 to 235 °C			CC(C)C(O)c1cc2c(=O)n(NS(C)(=O)=O)c(=O)[nH]c2cc1C(F)(F)F (stereo not drawn) [Example 22, N-[6-(1-Hydroxy-2-methyl-propyl)-2,4-dioxo-7-trifluoromethyl-1,4-dihydro-2H-quinazolin-3-yl]methanesulfonamide]
227 to 229 °C			COC(c1cc2c(=O)n(NS(C)(=O)=O)c(=O)[nH]c2cc1C(F)(F)F)C(C)C (stereo not drawn) [Example 23, N-[6-(1-Methoxy-2-methyl-propyl)-2,4-dioxo-7-trifluoromethyl-1,4-dihydro-2H-quinazolin-3-yl]-methanesulfonamide]
145 to 147 °C			CS(=O)(=O)Nn1c(=O)[nH]c2cc(C(F)(F)F)c(-c3ccc(C#N)cc3)cc2c1=O [Example 35, N-[6-(4-Cyano-phenyl)-2,4-dioxo-7-trifluoromethyl-1,4-dihydro-2H-quinazolin-3-yl]-methanesulfonamide]
